Measured values taken from ChEMBL document CHEMBL1151389, “Antitumor agents 57. The isolation and structural elucidation of microhelenin-E, a new antileukemic nor-pseudoguaianolide, and microhelenin-F from Helenium microcephalum” (1982).
≈ marks a conversion by molar mass, not a printed value.

What was measured:
KB = assay: Cytotoxicity against human KB cells; type: functional; conditions: read-out: ED50 (the source's name)
P388 = assay: Antileukemic activity against mouse P388 cells […] in BDF1 mouse at 8 mg/kg; type: functional

| SMILES | EC50 (KB) [µg/mL] | T/C (P388) [%] |
| --- | --- | --- |
| CC(C)=C1C(=O)O[C@@H]2C[C@@H](C)[C@@H]3C=CC(=O)[C@]3(O)C[C@H]12 [MICROHELENIN F] | 11 (≈ 39.8 µM) | 116 |
| CC(C)=C1C(=O)O[C@@H]2C[C@@H](C)[C@]3(O)C=CC(=O)[C@@H]3C[C@H]12 [MICROHELENIN E] | 1.38 (≈ 4.99 µM) | 166 |
